{"source": "patent US20100210536A1", "about": "“USE OF LEPTIN (22-56 ) AS A THERAPEUTIC AGENT” (priority 2007, published 2010)", "test_system": "drug-resistant Mycobacterium tuberculosis", "conditions": "peptide 10 micrograms per ml, seven days", "note": "Where no end group is shown, it is not given here.", "data": [{"substance": "VPIQKVQDDTKTLIKTIVTRINDISHTQSVSSKQK-OH [Leptin (22-56)]", "values": [{"measurement": "% inhibition", "result": 0.0, "unit": "%"}]}]}
